Data as given in US20220298138A1, “ENZYME INHIBITORS” (KALVISTA PHARMACEUTICALS LIMITED, priority 2019, published 2022).

Columns and labels:
[1] = biological target: T1, Human FXIa (Homo sapiens, UniProt P03951); experiment: FXIa inhibitory activity in vitro (fluorogenic substrate Z-Gly-Pro-Arg-AFC), selectivity; type: biochemical; conditions: category scale, 25° C.
T1 construct: Human FXIa (Enzyme Research Laboratories) was incubated; purchased Enzyme Research Laboratories
Procedure: Determination of the % Inhibition for FXIa
Human FXIa (Enzyme Research Laboratories) was incubated at 25° C. with the fluorogenic substrate Z-Gly-Pro-Arg-AFC and various concentrations of the test compound. Residual enzyme activity (initial rate of reaction) was determined by measuring the change in fluorescence at 410 nm and the IC50 value for the test compound was determined.

[2] = biological target: T2, Human Factor XIIa (Homo sapiens, UniProt P00748); experiment: Factor XIIa inhibitory activity in vitro (fluorogenic substrate H-DPro-Phe-Arg-AFC); type: biochemical; conditions: 25° C., class symbols, read-out: Human FXIIa IC50
T2 construct: purchased Enzyme Research Laboratories
T2 sequence (P00748 373-615 limits assumed): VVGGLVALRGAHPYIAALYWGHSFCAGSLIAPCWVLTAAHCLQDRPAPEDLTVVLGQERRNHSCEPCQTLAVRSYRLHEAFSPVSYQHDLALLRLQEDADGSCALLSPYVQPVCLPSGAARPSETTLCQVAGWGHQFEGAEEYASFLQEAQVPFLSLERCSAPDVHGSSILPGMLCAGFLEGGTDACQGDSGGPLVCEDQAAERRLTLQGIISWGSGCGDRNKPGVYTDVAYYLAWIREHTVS
Method in brief: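 Enzyme incubated at 25° C with fluorogenic substrate H-DPro-Phe-Arg-AFC and a range of compound concentrations. Residual activity taken as initial reaction rate from […], giving IC50.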

T1 sequence (P03951 388-625 limits assumed): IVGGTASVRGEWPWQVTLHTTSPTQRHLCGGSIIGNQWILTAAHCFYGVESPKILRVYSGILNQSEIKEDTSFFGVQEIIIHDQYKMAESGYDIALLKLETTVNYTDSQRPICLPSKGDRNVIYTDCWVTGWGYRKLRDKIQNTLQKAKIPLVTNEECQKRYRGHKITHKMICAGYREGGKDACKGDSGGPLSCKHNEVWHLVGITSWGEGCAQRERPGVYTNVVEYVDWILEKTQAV
T1 sequence (P03951 19-387 partner limits assumed): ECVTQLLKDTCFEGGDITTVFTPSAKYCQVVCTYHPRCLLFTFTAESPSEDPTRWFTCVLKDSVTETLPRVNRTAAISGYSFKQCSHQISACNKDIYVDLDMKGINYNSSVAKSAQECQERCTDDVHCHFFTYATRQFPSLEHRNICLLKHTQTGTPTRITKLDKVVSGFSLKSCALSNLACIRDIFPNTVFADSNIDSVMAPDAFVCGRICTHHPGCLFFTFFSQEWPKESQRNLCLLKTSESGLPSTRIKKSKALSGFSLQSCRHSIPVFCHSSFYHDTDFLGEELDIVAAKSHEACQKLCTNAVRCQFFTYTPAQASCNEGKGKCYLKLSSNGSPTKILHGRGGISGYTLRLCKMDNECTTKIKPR

| SMILES | IC50 [1] [µM] | IC50 [2] [µM] |
| --- | --- | --- |
| CC(C)c1cc(C(=O)N[C@@H](Cc2ccc(F)c(F)c2)C(=O)NCc2ccc3c(N)nccc3c2)nc2ncnn12 [Example 0.64, (S)—N-(1-(((1-Aminoisoquinolin-6-yl)methyl)amino)-3-(3,4-difluorophenyl)-1-oxopropan-2-yl)-7-isopropyl-[1,2,4]triazolo[1,5-a]pyrimidine-5-carboxamide] | > 40 | 0.28 to 1 |
| CC(C)n1cc(C(=O)N[C@@H](Cc2ccc(F)c(F)c2)C(=O)NCc2ccc3c(N)nccc3c2)ccc1=O [Example 0.94] | > 40 | 1 to 3 |
| CC(C)Oc1cc(C(=O)N[C@@H](Cc2ccc(F)c(F)c2)C(=O)NCc2ccc3c(N)nccc3c2)ccn1 [Example 0.95] | > 40 | 10 to 40 |
| CC(C)n1ccc(C(=O)N[C@@H](Cc2ccc(F)c(F)c2)C(=O)NCc2ccc3c(N)nccc3c2)cc1=O [Example 0.96] | > 40 | 3 to 10 |
| CC(C)c1cc(C(=O)N[C@@H](Cc2ccc(F)c(F)c2)C(=O)NCc2ccc3c(N)nccc3c2)cnn1 [Example 0.97] | > 40 | 1 to 3 |
| CC(C)c1cncc(C(=O)N[C@@H](Cc2ccc(F)c(F)c2)C(=O)NCc2ccc3c(N)nccc3c2)n1 [Example 0.98] | > 40 | 10 to 40 |
| CC(C)c1ccnc(C(=O)N[C@@H](Cc2ccc(F)c(F)c2)C(=O)NCc2ccc3c(N)nccc3c2)n1 [Example 0.99] | > 40 | 10 to 40 |
| CC1CCCC(C)N1CC(=O)N[C@@H](Cc1ccc(F)c(F)c1)C(=O)NCc1ccc2c(N)nccc2c1 (stereo partly drawn) [Example 3.01] | > 40 | 0.1 to 0.279 |
| C[C@@H]1CCC[C@H](C)N1CC(=O)N[C@@H](Cc1ccc(F)c(F)c1)C(=O)NCc1ccc2c(N)nccc2c1 [Example 3.42, (2S)—N-[(1-aminoisoquinolin-6-yl)methyl]-3-(3,4-difluorophenyl)-2-{2-[(2R,6S)-2,6-dimethylpiperidin-1-yl]acetamido}propanamide] | > 40 | 0.03 to 0.1 |
| COc1ccc(OCCC(=O)N[C@@H](Cc2ccc(F)c(F)c2)C(=O)NCc2ccc3c(N)nccc3c2)cc1 [Example 20.01] |  | 10 to 40 |
| Nc1nccc2cc(CNC(=O)[C@H](Cc3ccc(F)c(F)c3)NC(=O)COc3cccnc3)ccc12 [Example 20.02] |  | 10 to 40 |
| Cc1ccnn1CCC(=O)N[C@@H](Cc1ccc(F)c(F)c1)C(=O)NCc1ccc2c(N)nccc2c1 [Example 20.03] |  | 10 to 40 |
| CCOCCC(=O)N[C@@H](Cc1ccc(F)c(F)c1)C(=O)NCc1ccc2c(N)nccc2c1 [Example 20.04] |  | 10 to 40 |
| Nc1nccc2cc(CNC(=O)[C@H](Cc3ccc(F)c(F)c3)NC(=O)CCn3cnc4ccccc43)ccc12 [Example 20.05] |  | 10 to 40 |
| Cc1nc2ccccc2n1CCC(=O)N[C@@H](Cc1ccc(F)c(F)c1)C(=O)NCc1ccc2c(N)nccc2c1 [Example 20.06] |  | 10 to 40 |
| Nc1nccc2cc(CNC(=O)[C@H](Cc3ccc(F)c(F)c3)NC(=O)CCn3cncn3)ccc12 [Example 20.07] |  | 10 to 40 |
| Cc1nn(C)c(C)c1CCC(=O)N[C@@H](Cc1ccc(F)c(F)c1)C(=O)NCc1ccc2c(N)nccc2c1 [Example 20.08] |  | 10 to 40 |
| Nc1nccc2cc(CNC(=O)[C@H](Cc3ccc(F)c(F)c3)NC(=O)CCNC(=O)c3ccc(F)cc3)ccc12 [Example 20.09] |  | 10 to 40 |
| Nc1nccc2cc(CNC(=O)[C@H](Cc3ccc(F)c(F)c3)NC(=O)CCc3[nH]nc4c3CCCC4)ccc12 [Example 20.10] |  | 10 to 40 |

| SMILES | IC50 [1] [µM] | IC50 [2] [µM] |
| --- | --- | --- |
| Nc1nccc2cc(CNC(=O)[C@@H](N)Cc3csc4ccccc34)ccc12 [Example 24.01] |  | 10 to 40 |
| Nc1nccc2cc(CNC(=O)[C@@H](N)Cc3cccc(F)c3)ccc12 [Example 24.02] |  | 10 to 40 |
| Nc1nccc2cc(CNC(=O)C[C@@H](N)Cc3ccccc3)ccc12 [Example 24.03] |  | 10 to 40 |
| Cc1ccc2cc(C(=O)N3CCC(C(=O)NCc4ccc5c(N)nccc5c4)C3)ccc2n1 (stereo not drawn) [Example 32.01] |  | 10 to 40 |
| C[C@@H]1CCC[C@H](C)N1CC(=O)N1CCC[C@H]1C(=O)NCc1ccc2c(N)nccc2c1 [Example 32.02] |  | 10 to 40 |
| C[C@@H]1CCC[C@H](C)N1CC(=O)N1CCCC[C@H]1C(=O)NCc1ccc2c(N)nccc2c1 [Example 32.03] |  | 1 to 3 |
| C[C@@H]1CCC[C@H](C)N1CC(=O)N1c2ccccc2C[C@H]1C(=O)NCc1ccc2c(N)nccc2c1 [Example 32.04] |  | 10 to 40 |
| C[C@@H]1CCC[C@H](C)N1CC(=O)N1CC[C@H](C(=O)NCc2ccc3c(N)nccc3c2)C1 [Example 32.06] |  | 10 to 40 |
| C[C@@H]1CCC[C@H](C)N1CC(=O)N1CC[C@@H](C(=O)NCc2ccc3c(N)nccc3c2)C1 [Example 32.07] |  | 10 to 40 |
| C[C@@H]1CCC[C@H](C)N1CC(=O)N1CCC[C@@H](C(=O)NCc2ccc3c(N)nccc3c2)C1 [Example 32.08] |  | 1 to 3 |
| C[C@@H]1CCC[C@H](C)N1CC(=O)N1c2ccccc2CC[C@H]1C(=O)NCc1ccc2c(N)nccc2c1 [Example 32.09] |  | 10 to 40 |
| COc1ccc(CNC(=O)[C@H](Cc2ccc(F)c(F)c2)NC(=O)CN2[C@H](C)CCC[C@@H]2C)cc1Cl [Example 34.01] |  | 10 to 40 |
| C[C@@H]1CCC[C@H](C)N1CC(=O)N[C@@H](Cc1ccc(F)c(F)c1)C(=O)NC1CCN(c2ccncc2)CC1 [Example 34.02] |  | 3 to 10 |
| C[C@@H]1CCC[C@H](C)N1CC(=O)N[C@@H](Cc1ccc(F)c(F)c1)C(=O)NCc1cccc2[nH]ccc12 [Example 34.03] |  | 3 to 10 |
| C[C@@H]1CCC[C@H](C)N1CC(=O)N[C@@H](Cc1ccc(F)c(F)c1)C(=O)NCc1ccnc(N)c1 [Example 34.04] |  | 10 to 40 |
| C[C@@H]1CCC[C@H](C)N1CC(=O)N[C@@H](Cc1ccc(F)c(F)c1)C(=O)NCc1ccc2[nH]ccc2c1 [Example 34.05] |  | 10 to 40 |
| C[C@@H]1CCC[C@H](C)N1CC(=O)N[C@@H](Cc1ccc(F)c(F)c1)C(=O)NCc1cnc2[nH]ccc2c1 [Example 34.06] |  | 3 to 10 |
| C[C@@H]1CCC[C@H](C)N1CC(=O)N[C@@H](Cc1ccc(F)c(F)c1)C(=O)NCc1ccc2[nH]ncc2c1 [Example 34.07] |  | 10 to 40 |
| C[C@@H]1CCC[C@H](C)N1CC(=O)N[C@@H](Cc1ccc(F)c(F)c1)C(=O)NCc1ccc2c(cnn2C)c1 [Example 34.08] |  | 10 to 40 |

| SMILES | IC50 [1] [µM] | IC50 [2] [µM] |
| --- | --- | --- |
| CC1CCCC(C)N1CC(=O)NCCC(=O)NCc1ccc2c(N)nccc2c1 (stereo not drawn) [Example 39.01] |  | 10 to 40 |
| C[C@H](NC(=O)CN1[C@H](C)CCC[C@@H]1C)C(=O)NCc1ccc2c(N)nccc2c1 [Example 39.02] |  | 3 to 10 |
| C[C@@H]1CCC[C@H](C)N1CC(=O)NCC(=O)NCc1ccc2c(N)nccc2c1 [Example 39.03] |  | 10 to 40 |
| C[C@@H]1CCC[C@H](C)N1CC(=O)N[C@H](CC(=O)NCc1ccc2c(N)nccc2c1)Cc1ccccc1 [Example 39.04] |  | 10 to 40 |
| CC(OCc1ccccc1)[C@H](NC(=O)CN1[C@H](C)CCC[C@@H]1C)C(=O)NCc1ccc2c(N)nccc2c1 (stereo partly drawn) [Example 39.05] |  | 3 to 10 |
| CC(O)[C@H](NC(=O)CN1[C@H](C)CCC[C@@H]1C)C(=O)NCc1ccc2c(N)nccc2c1 (stereo partly drawn) [Example 39.06, (2S)—N-[(1-Aminoisoquinolin-6-yl)methyl]-2-{2-[(2R,6S)-2,6-dimethylpiperidin-1-yl]acetamido}-3-hydroxybutanamide] |  | 10 to 40 |
| C[C@@H]1CCC[C@H](C)N1C(=O)N[C@H](CC(=O)NCc1ccc2c(N)nccc2c1)Cc1ccccc1 [Example 39.07] |  | 10 to 40 |
| C[C@@H]1CCC[C@H](C)N1CC(=O)NC(C)(C)C(=O)NCc1ccc2c(N)nccc2c1 [Example 39.08] |  | 10 to 40 |
| CC(C)N1CCC[C@@H]1C(=O)N[C@@H](Cc1ccc(F)c(F)c1)C(=O)NCc1ccc2c(N)nccc2c1 [Example 44.01] |  | 0.28 to 1 |
| CC(C)N1CCC[C@@H]1C(=O)N[C@@H](Cc1ccc(F)c(F)c1)C(=O)NC1CCN(c2ccncc2)CC1 [Example 44.02] |  | 10 to 40 |
| CC(C)N1CCC[C@@H]1C(=O)N[C@@H](Cc1ccc(F)c(F)c1)C(=O)NCc1cccc2[nH]ccc12 [Example 44.03] |  | 10 to 40 |
| CC(C)N1CCC[C@@H]1C(=O)N[C@@H](Cc1ccc(F)c(F)c1)C(=O)NCc1cnc2[nH]ccc2c1 [Example 44.04] |  | 10 to 40 |
| CC(C)N1CCC[C@@H]1C(=O)N[C@@H](Cc1ccc(F)c(F)c1)C(=O)NCc1ccc2[nH]ncc2c1 [Example 44.05] |  | 10 to 40 |
| CC(C)N1CCC[C@@H]1C(=O)N[C@@H](Cc1ccc(F)c(F)c1)C(=O)NCc1ccc2c(cnn2C)c1 [Example 44.06] |  | 10 to 40 |
| CCCS(=O)(=O)N[C@@H](Cc1ccc(F)c(F)c1)C(=O)NCc1ccc2c(N)nccc2c1 [Example 55.01] |  | 10 to 40 |
| CS(=O)(=O)N[C@@H](Cc1ccc(F)c(F)c1)C(=O)NCc1ccc2c(N)nccc2c1 [Example 55.02] |  | 10 to 40 |
| N#Cc1ccccc1CN[C@@H](Cc1ccc(F)c(F)c1)C(=O)NCc1ccc2c(N)nccc2c1 [Example 55.03] |  | 10 to 40 |
| N#Cc1ccc(CS(=O)(=O)N[C@@H](Cc2ccc(F)c(F)c2)C(=O)NCc2ccc3c(N)nccc3c2)cc1 [Example 55.04] |  | 10 to 40 |
| Cc1ccc(C)c(S(=O)(=O)NCC(=O)N[C@@H](Cc2ccc(F)c(F)c2)C(=O)NCc2ccc3c(N)nccc3c2)c1 [Example 55.05] |  | 1 to 3 |
